Data taken from paper PMC5413351, “Structural basis of protein translocation by the Vps4-Vta1 AAA ATPase” (eLife, 2017).
Where a SMILES comes first, the peptide text is derived from it.

Molecular target: T1, Vps4^101-437-Hcp1 (UniProt P52917+Q9I747)
T1 construct: 6xHis (TEV-cleavable) (N, cleaved yes); Pseudomonas aeruginosa Hcp1 fusion partner (candidate entry Q9I747, HCP1_PSEAE); made in house; host or cells: E. coli BL21(DE3)RIL
T1 sequence (P52917+Q9I747 with tags, fused parts or gaps): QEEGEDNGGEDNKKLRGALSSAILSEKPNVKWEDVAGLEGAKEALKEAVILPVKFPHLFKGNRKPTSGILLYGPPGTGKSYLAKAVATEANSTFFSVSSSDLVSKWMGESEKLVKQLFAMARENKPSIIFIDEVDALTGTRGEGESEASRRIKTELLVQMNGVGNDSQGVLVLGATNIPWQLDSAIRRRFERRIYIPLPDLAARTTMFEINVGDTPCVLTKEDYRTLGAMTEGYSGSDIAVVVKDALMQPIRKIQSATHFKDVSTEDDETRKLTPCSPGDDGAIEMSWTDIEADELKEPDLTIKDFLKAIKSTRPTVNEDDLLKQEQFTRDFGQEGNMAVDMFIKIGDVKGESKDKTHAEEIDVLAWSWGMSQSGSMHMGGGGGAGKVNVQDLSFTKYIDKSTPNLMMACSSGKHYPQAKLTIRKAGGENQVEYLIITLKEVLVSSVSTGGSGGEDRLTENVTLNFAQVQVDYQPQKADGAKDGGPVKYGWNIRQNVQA
T1 sequence (Q06263 280-330 partner limits assumed): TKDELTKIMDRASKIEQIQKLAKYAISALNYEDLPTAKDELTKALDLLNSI
Assay: Fluorescence polarization binding of fluorescently labeled ESCRT-III peptide to Vps4^101-437-Hcp1
Set-up: species or system S. cerevisiae
Conditions: 2:1 Vta1^VSL:Vps4 subunits, 1 mM ADP·BeFx, 1 nM fluorescent peptide, 20 mM HEPES pH 7.4, 100 mM NaCl, 10 mM MgCl2, 1 mM DTT, room temperature; per Vps4 hexamer; global fit of four independent experiments
Experimental: Fluorescence polarization assay for ESCRT-III peptide binding
When equilibrium was reached, parallel and perpendicular fluorescence intensities were measured on a Biotek Synergy Neo HTS microplate reader using an excitation wavelength of 485 nm and an emission wavelength of 528 nm.

Q: How did the Kd turn out when `CC[C@H](C)[C@H](NC(=O)[C@H](CCC(=O)O)NC(=O)[C@H](CC(=O)O)NC(=O)[C@H](CC(C)C)NC(=O)[C@@H](NC(=O)[C@H](CCCCN)NC(=O)[C@H](CC(N)=O)NC(=O)[C@@H](NC(=O)[C@@H](NC(=O)[C@H](CCC(=O)O)NC(=O)[C@H](CC(=O)O)NC(=O)c1ccc2c(c1)C(=O)OC21c2ccc(O)cc2Oc2cc(O)ccc21)[C@@H](C)CC)C(C)C)C(C)C)C(=O)NCC(=O)N[C@H](C(=O)N[C@@H](CC(=O)O)C(=O)N[C@@H](CC(C)C)C(=O)N[C@@H](CC(N)=O)C(=O)N[C@@H](CO)C(=O)N[C@@H](CCC(N)=O)C(=O)N[C@@H](CC(C)C)C(=O)N[C@@H](CCC(N)=O)C(N)=O)C(C)C` [Peptide ‘20’] (HELM PEPTIDE1{[O=C1OC2(c3ccc(O)cc3Oc3cc(O)ccc32)c2ccc(C(=O)[*:2])cc21].D.E.I.V.N.K.V.L.D.E.I.G.V.D.L.N.S.Q.L.Q.[am]}$$$$V2.0) was run?
A: 0.178 µM
